Experimental data taken from ChEMBL document CHEMBL3751833, “Discovery of potent aryl-substituted 3-[(3-methylpyridine-2-carbonyl) amino]-2,4-dimethyl-benzoic acid EP4 antagonists with improved pharmacokinetic profile” (Bioorg Med Chem Lett, 2016).
≈ marks a conversion by molar mass, not a printed value. Calls of active or inactive are those of the source. The rule behind the calls is not given here.

Columns and labels:
[1] = Oral bioavailability in rat at 5 mg/kg; type: ADME, organism-based; conditions: in vivo
[2] = Aqueous solubility of compound at pH 6 after 20 hrs by HPLC analysis; type: physicochemical
[3] = target: T1, Prostaglandin E2 receptor EP4 subtype (Homo sapiens, UniProt P35408); assay: Antagonist activity at human EP4 receptor expressed in HEK293 cells assessed as inhibition of PGE2-stimulated cAMP production after 1 hr by HTRF assay; type: functional, cell-based
T1 sequence (P35408 whole entry): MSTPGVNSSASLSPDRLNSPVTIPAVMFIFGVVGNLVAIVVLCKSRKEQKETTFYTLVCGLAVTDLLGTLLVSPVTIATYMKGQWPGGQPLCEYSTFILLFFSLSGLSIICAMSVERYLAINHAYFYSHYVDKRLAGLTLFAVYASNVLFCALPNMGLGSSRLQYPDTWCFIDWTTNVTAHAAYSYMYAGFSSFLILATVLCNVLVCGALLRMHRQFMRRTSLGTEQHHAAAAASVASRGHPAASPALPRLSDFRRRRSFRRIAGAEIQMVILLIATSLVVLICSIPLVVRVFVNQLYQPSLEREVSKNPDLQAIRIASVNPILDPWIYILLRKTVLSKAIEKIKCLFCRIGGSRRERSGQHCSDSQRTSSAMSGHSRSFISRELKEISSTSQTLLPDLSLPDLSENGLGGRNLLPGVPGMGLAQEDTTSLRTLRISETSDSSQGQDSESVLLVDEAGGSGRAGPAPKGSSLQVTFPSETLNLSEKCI

[4] = target: T1, Prostaglandin E2 receptor EP4 subtype; assay: Antagonist activity at EP4 receptor in LPS-stimulated human whole blood assessed as inhibition of PGE2-induced TNF-alpha release pretreated for 30 mins followed by addition of PGE2 measured after 20 to 24 hrs by immunoassay; type: tissue-based
[5] = Clearance in rat at 1 mg/kg, iv; type: ADME, organism-based; conditions: in vivo
[6] = AUC in rat at 5 mg/kg, po; type: ADME, organism-based; conditions: in vivo
[7] = test system: Rattus norvegicus; assay: Antiinflammatory activity in adjuvant-induced arthritis rat model assessed as inhibition of paw swelling at 10 mg/kg administered 15 days post adjuvant challenge; type: functional, organism-based
[8] = test system: Rattus norvegicus; assay: Analgesic activity in […]-induced rat joint pain model assessed as inhibition of differential weight bearing at 5 mg/kg, po measured 30 mins post dose; type: functional, organism-based
[9] = Oral bioavailability in rat; type: ADME, organism-based; conditions: in vivo

SMILES	bioavailability [1]	solubility at 20 h [2]	IC50 [3]	IC50 [4]	clearance [5]	AUC [6]	inhibition [7]	inhibition [8]	bioavailability [9]
Cc1cc(C(=O)O)cc(C)c1NC(=O)c1cc(-c2cccc(CO)c2)ccc1F	12%	774 µg/mL (≈ 1970 µM)	0.73 nM	47.8 nM	91 mL/min/kg	105 ng·h/mL			
Cc1ccc(-c2cccc(Cl)c2)nc1C(=O)Nc1c(C)ccc(C(=O)O)c1C			1.56 nM	637 nM					
O=C(O)Cc1ccccc1Nc1c(Cl)cccc1Cl							Active	Active	
Cc1cc(C(=O)O)cc(C)c1NC(=O)c1nc(-c2cccc(CO)c2)ccc1C(F)(F)F	16%	23 µg/mL (≈ 51.8 µM)	0.67 nM	121 nM	54 mL/min/kg	243 ng·h/mL			
Cc1ccc(-c2cccc(CO)c2)cc1C(=O)Nc1c(C)cc(C(=O)O)cc1C	13%	31 µg/mL (≈ 79.6 µM)	0.28 nM	18.7 nM	71 mL/min/kg	88 ng·h/mL			
Cc1ccc(C(=O)O)c(C)c1NC(=O)c1cc(-c2cccc(CO)c2)cc2ccccc12									6%
